In US20090029366A1 (priority 2007, published 2009):

Experiments:
human HCN1 = target: T1, human HCN1 (Homo sapiens, UniProt O60741); format: cell-based
T1 construct: expressed in transfected cells; host or cells: HEK-293H
T1 sequence (O60741 1-890): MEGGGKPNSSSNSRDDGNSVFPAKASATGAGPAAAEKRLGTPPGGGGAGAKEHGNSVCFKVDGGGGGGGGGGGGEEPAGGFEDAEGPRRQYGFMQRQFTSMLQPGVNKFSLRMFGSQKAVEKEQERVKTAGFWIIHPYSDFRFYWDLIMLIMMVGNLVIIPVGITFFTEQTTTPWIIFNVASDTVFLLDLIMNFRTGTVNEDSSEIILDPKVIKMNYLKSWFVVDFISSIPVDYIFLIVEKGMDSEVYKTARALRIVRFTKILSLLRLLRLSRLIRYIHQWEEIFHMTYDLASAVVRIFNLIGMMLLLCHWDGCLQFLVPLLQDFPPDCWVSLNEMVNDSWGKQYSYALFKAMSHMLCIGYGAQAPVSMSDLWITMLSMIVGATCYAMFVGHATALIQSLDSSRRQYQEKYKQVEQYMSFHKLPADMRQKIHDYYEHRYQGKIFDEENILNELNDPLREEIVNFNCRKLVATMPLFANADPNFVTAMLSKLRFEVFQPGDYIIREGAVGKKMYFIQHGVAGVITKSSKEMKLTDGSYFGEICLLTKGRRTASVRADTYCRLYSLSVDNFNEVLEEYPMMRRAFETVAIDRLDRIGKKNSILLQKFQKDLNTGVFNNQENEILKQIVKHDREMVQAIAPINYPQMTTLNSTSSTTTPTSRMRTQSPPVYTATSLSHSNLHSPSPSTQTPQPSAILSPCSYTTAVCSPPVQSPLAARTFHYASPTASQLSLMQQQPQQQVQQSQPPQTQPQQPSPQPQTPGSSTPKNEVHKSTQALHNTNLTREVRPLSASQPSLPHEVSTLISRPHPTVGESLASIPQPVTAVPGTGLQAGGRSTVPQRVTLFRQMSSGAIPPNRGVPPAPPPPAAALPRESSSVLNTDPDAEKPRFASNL

HCN3 channel = target: T2, HCN3 channel (Homo sapiens, UniProt Q9P1Z3); experiment: MPSD FLIPR/FLEX 96 well hyperpolarization assay, HCN3; format: cell-based; conditions: HCN3 channel expressing HEK-293H cells, ZD7288 30 μM (FIG. 7A)
T2 construct: expressed in transfected cells; host or cells: HEK-293H
T2 sequence (Q9P1Z3 1-774): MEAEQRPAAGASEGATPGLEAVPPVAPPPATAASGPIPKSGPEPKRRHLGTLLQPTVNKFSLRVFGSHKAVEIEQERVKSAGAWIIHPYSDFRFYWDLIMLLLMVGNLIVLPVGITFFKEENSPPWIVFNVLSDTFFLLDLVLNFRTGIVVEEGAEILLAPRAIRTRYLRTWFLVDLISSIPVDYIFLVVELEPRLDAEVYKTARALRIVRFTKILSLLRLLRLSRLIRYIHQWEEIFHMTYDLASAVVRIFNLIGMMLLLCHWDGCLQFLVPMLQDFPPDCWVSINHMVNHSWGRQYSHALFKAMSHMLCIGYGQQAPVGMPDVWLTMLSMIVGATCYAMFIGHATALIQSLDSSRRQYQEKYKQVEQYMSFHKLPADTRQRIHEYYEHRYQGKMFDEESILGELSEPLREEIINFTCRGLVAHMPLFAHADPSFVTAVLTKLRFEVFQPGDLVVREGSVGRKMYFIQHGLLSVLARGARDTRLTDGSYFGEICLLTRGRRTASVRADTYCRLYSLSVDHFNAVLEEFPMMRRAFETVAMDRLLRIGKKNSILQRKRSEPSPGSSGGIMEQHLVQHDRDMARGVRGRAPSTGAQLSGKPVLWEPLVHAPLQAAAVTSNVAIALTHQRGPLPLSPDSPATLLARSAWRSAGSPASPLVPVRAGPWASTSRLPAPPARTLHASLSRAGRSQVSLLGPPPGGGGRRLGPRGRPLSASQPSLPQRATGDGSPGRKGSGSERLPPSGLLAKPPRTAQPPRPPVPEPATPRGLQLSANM
Protocol: The above-described assay was modified for use with the FLIPR®^96 or FLEX^96 96 well plate format. In brief, cells stably expressing HCN channels were plated at 40-80×10^3 cells/plate in 100-150 μl/well of DMEM supplemented with 10% fetal bovine serum, 1× NEAA, and 1× penicillin/streptomycin. Cells were cultured for 24-48 hours in a 5% CO2/air humidifiedincubator at 37° C. Cells were incubated in 30 μl/well of HBSS containing MPSD, as described above, for 15-45 minutes at room temperature.
Membrane potentials were measured at room temperature (21°-23°) using a FLIPR® system or a FLEXSTATION® (Molecular Devices of Sunnydale, Calif.). Control cells were incubated in HBSS/MPSD without a test agent. For identification of HCN channel modulators, cells were incubated in HBSS/MPSD and the presence of a test agent as described in Examples 5 and 6 herein below. […]
Cells were incubated in 30 μl HBSS supplemented with MPSD with or without 50 μM of the channel inhibitor ZD7288, dissolved in <1.0% dimethyl sulfoxide (DMSO) added to the HBSS solution. […] The change in fluorescence (ΔF) was measured for a total assay time of about 100 seconds. […]
FIG. 6A depicts the whole-plate screenshot of the changes in fluorescence/membrane potential over time. FIG. 7A depicts the change in fluorescence (F) over time for control cells (upper trace) and for cells exposed to ZD7288 at a concentration of 30 μM (lower trace). […]

Which “reversal of hyperpolarization induced by low sodium/potassium diluent” value (human HCN1) does the source give for CCN(c1ccccc1)c1cc(=NC)n(C)c(C)n1.Cl [ZD7288] here?
The value was “reversed”.

And the “blockade of hyperpolarization (change in fluorescence)” value (HCN3 channel)?
Its value is “effectively blocked hyperpolarization”.
